Patent publication US8912181B2 (Taiho Pharmaceutical Co., Ltd., priority 2011, dated 2014)
pIC50: −log10 of the molar value.

Legend:
[1] = target: human HSP90 alpha protein (N-terminal, amino acids 2 to 236) (Homo sapiens (Human), UniProt P07900); assay: Determination of HSP90-binding activity (AlphaScreen competitive assay with biotinylated geldanamycin); details: inhibition of binding of biotinylated geldanamycin to purified HSP90 N-terminal protein, read-out: HSP-binding activity IC50
Outline: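 His-tagged N-terminal construct (aa 2–236) expressed in E. coli and purified was preincubated with compound 2 h at room temperature, then biotinylated geldanamycin (40 nM/well) added for 1 h. AlphaScreen nickel-chelate acceptor/streptavidin donor beads, 1 h dark; percent inhibition calculated against no-compound signal.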

SK-BR-3 cells = assay: Determination of cell growth inhibition (crystal violet staining method); format: cell-based; details: Homo sapiens; breast cancer cells SK-BR-3, 72 hours culture with test substance
Outline: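 SK-BR-3 cells seeded 5,000/well, cultured 24 h at 37 °C, then exposed to compound for 72 h. Cells fixed with glutaraldehyde, stained with 0.05% crystal violet, eluted and read at 540 nm; percent growth inhibition calculated versus untreated wells.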

SMILES | pIC50 [1] | pIC50 (SK-BR-3 cells)
CCc1cc(-c2ccc(C(N)=O)c(N)c2)c2cccc(-n3cnc(-c4cccnc4)c3)c2n1 [Example 122, 2-Amino-4-(2-ethyl-8-(4-(pyridin-3-yl)-1H-imidazol-1-yl)quinolin-4-yl)benzamide] | 7.05 | 8.00
CC(C)c1cc(-c2ccc(C(N)=O)c(N)c2)c2cccc(-n3cnc(-c4cccnc4)c3)c2n1 [Example 123, 2-Amino-4-(2-isopropyl-8-(4-(pyridin-3-yl)-1H-imidazol-1-yl)quinolin-4-yl)benzamide] | 6.80 | 8.00
CCc1cc(-c2ccc(C(N)=O)c(N)c2)c2cccc(-n3cnc(-c4ccc(C)nc4)c3)c2n1 [Example 124, 2-Amino-4-(2-ethyl-8-(4-(6-methylpyridin-3-yl)-1H-imidazol-1-yl)quinolin-4-yl)benzamide] | 6.89 | 7.70
Cc1ccc(-c2cn(-c3cccc4c(-c5ccc(C(N)=O)c(N)c5)cc(C(C)C)nc34)cn2)cn1 [Example 125, 2-Amino-4-(2-isopropyl-8-(4-(6-methylpyridin-3-yl)-1H-imidazol-1-yl)quinolin-4-yl)benzamide] | 6.80 | 8.00
CC(C)(C)Nc1cc(-c2nccc3c(-c4cnc5ccccc5c4)cccc23)ccc1C(N)=O [Example 126, 2-(Tert-butylamino)-4-(5-(quinolin-3-yl)isoquinolin-1-yl)benzamide] | 5.82 | 6.46
CC(C)(C)Nc1cc(-c2nccc3c(-n4cnc(-c5cccnc5)c4)cccc23)ccc1C(N)=O [Example 127] | 6.68 | 7.30
Cn1cc(-c2cn(-c3cccc4c(-c5ccc(C(N)=O)c(N)c5)nccc34)cn2)cn1 [Example 128, 2-Amino-4-(5-(4-(1-methyl-1H-pyrazol-4-yl)-1H-imidazol-1-yl)isoquinolin-1-yl)benzamide] | 6.51 | 5.97
Cn1cc(-c2cn(-c3cccc4c(-c5ccc(C(N)=O)c(NC(C)(C)C)c5)ccnc34)cn2)cn1 [Example 130, 2-(Tert-butylamino)-4-(8-(4-(1-methyl-1H-pyrazol-4-yl)-1H-imidazol-1-yl)quinolin-4-yl)benzamide] | 6.96 | 7.22
CC(C)(C)Nc1cc(-c2ccnc3c(-n4cnc(-c5cccnc5)c4)cccc23)ccc1C(N)=O [Example 131, 2-(Tert-butylamino)-4-(8-(4-(pyridin-3-yl)-1H-imidazol-1-yl)quinolin-4-yl)benzamide] | 6.59 | 6.85
Cn1cc(-c2cn(-c3cccc4c(-c5ccc(C(N)=O)c(N)c5)ccnc34)cn2)cn1 [Example 132, 2-Amino-4-(8-(4-(1-methyl-1H-pyrazol-4-yl)-1H-imidazol-1-yl)quinolin-4-yl)benzamide] | 6.49 | 6.02
NC(=O)c1ccc(-c2ccnc3c(-n4cnc(-c5cccnc5)c4)cccc23)cc1N [Example 133] | 6.08 | 5.88
